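Assay format: 96-well plates, 48-hour exposure. The concentration for 50% growth inhibition is given as GI50. At the TGI there is no net growth.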
What was measured:
Test in all cases: DTP human tumour cell line panel, 48 h
[1] = system: OVCAR-8 ovarian
[2] = system: OVCAR-3 ovarian
[3] = system: OVCAR-4 ovarian
[4] = system: COLO 205 colon
[5] = system: NCI-H522 lung
[6] = system: SF-295 CNS
[7] = system: HCC-2998 colon
[8] = system: A498 renal
[9] = system: MALME-3M melanoma
[10] = system: TK-10 renal

Structure (SMILES) | GI50 [1] [µM] | TGI [1] [µM] | GI50 [2] [µM] | TGI [2] [µM] | GI50 [3] [µM] | TGI [3] [µM] | GI50 [4] [µM] | TGI [4] [µM] | GI50 [5] [µM] | TGI [5] [µM] | GI50 [6] [µM] | TGI [6] [µM] | GI50 [7] [µM] | TGI [7] [µM] | GI50 [8] [µM] | TGI [8] [µM] | GI50 [9] [µM] | TGI [9] [µM] | GI50 [10] [µM] | TGI [10] [µM]
O=S(=O)(CCCl)c1ccc(Cl)cc1 | 3.14 | 12.9 | 2.84 | 10.6 | 2.22 | 10.8 | 3.74 | 11.7 | 1.41 | 3.01 | 18.2 | 47.5 | 11.5 | 25.6 | 2.26 | 9.94 | 2.23 | 7.2 | 2.32 | 6.44
CCOC(=O)NC(=O)c1cn(CCN2CCN(C(=O)CCCCCCCCCCC(=O)N3CCN(CCn4cc(C(=O)NC(=O)OCC)c(=O)[nH]c4=O)CC3)CC2)c(=O)[nH]c1=O | – | > 100 | – | > 100 | – | > 100 | – | > 100 | – | > 100 | – | > 100 | – | > 100 | – | > 100 | – | > 100 | – | > 100
CC(C)(C)OC(=O)NCCCCCCCn1c2c(c3ccccc3c1=O)C(=O)c1ccccc1-2 | 21.5 | > 100 | 34.3 | > 100 | 30.5 | > 100 | 63.7 | > 100 | 26.4 | > 100 | 37.4 | > 100 | 40.6 | > 100 | 4.74 | 42.2 | 37.2 | > 100 | 38.3 | > 100
O=C(/C=C/c1ccccc1)c1ccc(NCc2nc3ccccc3[nH]2)cc1 | – | 14.9 | – | 9.57 | – | 22.8 | – | 11.1 | – | 14.7 | – | 13.1 | – | 4.2 | – | 18.3 | – | 26.9 | – | 24
O=C(O)[C@@H](Cc1ccc2ccccc2c1)NC(=O)n1c2ccccc2c2ccccc21 | 4.16 | > 100 | 1.81 | 6.78 | 6.8 | > 100 | 2.55 | 5.29 | 0.356 | 2.21 | 2.29 | 8.97 | 3.91 | 19.1 | 2.23 | 9.31 | 4.25 | 31.5 | 14.9 | > 100
O=C(N[C@@H](C[Se][Se]C[C@H](NC(=O)c1ccc(Br)cc1F)C(=O)O)C(=O)O)c1ccc(Br)cc1F | > 100 | > 100 | > 100 | > 100 | > 100 | > 100 | > 100 | > 100 | > 100 | > 100 | > 100 | > 100 | > 100 | > 100 | > 100 | > 100 | > 100 | > 100 | > 100 | > 100
CN(C)C(=S)/N=c1\ssc(=S)n1Cc1ccncc1 | – | 68.9 | – | 32.9 | – | 95.2 | – | > 100 | – | 2.99 | – | 83.8 | – | 57.3 | – | 73.8 | – | 50.2 | – | 80.3
C=C1C(=O)O[C@H]2[C@H]1CC/C(C=Nc1c(N)cc(C(F)(F)F)cc1Br)=C\CC[C@@]1(C)O[C@@H]21 | 2.34 | 9.03 | 1.29 | 2.65 | 1.57 | 3.45 | 1.6 | 3.16 | 1.37 | 2.96 | 2.66 | 7.96 | 1.83 | 3.52 | 2.03 | 4.8 | 1.71 | 3.34 | 1.98 | 3.49
COC(=O)C1(O)CC(=O)CCC1c1ccc(OC)cc1 (stereo not given) | – | > 100 | – | > 100 | – | > 100 | – | > 100 | – | > 100 | – | > 100 | – | > 100 | – | > 100 | – | > 100 | – | > 100
COc1cc(NCCCCCCCNC(C)C)c2nccc(C)c2c1 | 15.2 | 33.5 | 2.96 | 8.89 | 4.08 | 15.6 | 2.34 | 6.54 | 16 | 35 | 14.1 | 29.6 | 6.29 | 19 | 15.3 | 29.6 | 17.3 | 34.8 | 17.1 | 32.7
O=c1oc2ccc(I)cc2c(=O)n1-c1ccc(Cl)cc1F | 1.66 | 24.9 | 0.974 | 12 | 1.68 | 19 | 4.96 | 19.9 | 0.8 | 9.72 | 1.8 | 3.69 | 3.18 | 12.9 | 0.141 | 0.7 | 0.516 | 3.49 | 4.09 | 16.9

Reference: PubChem BioAssay (NCI)
